Experimental data as given in ChEMBL document CHEMBL5096208, “Installation of Pargyline, a LSD1 Inhibitor, in the HDAC Inhibitory Template Culminated in the Identification of a Tractable Antiprostate Cancer Agent” (J Med Chem, 2021).
Calls of active or inactive are those of the source. The rule behind the calls is not given here.

Tests used:
[1] = system: PC-3; assay: Antiproliferative activity against human PC-3 cells assessed as cell growth inhibition incubated for 48 hrs by MTT assay; assay type: functional
[2] = system: DU-145; assay: Antiproliferative activity against human DU-145 cells assessed as cell growth inhibition incubated for 48 hrs by MTT assay; assay type: functional
[3] = molecular target: Histone deacetylase 4 (Homo sapiens, UniProt P56524); assay: Inhibition of human HDAC4 using Boc-Lys(trifluoroacetyl)-AMC as flurogenic substrate
[4] = molecular target: Histone deacetylase 5 (Homo sapiens, UniProt Q9UQL6); assay: Inhibition of human HDAC5 using Boc-Lys(trifluoroacetyl)-AMC as flurogenic substrate
[5] = molecular target: Histone deacetylase 9 (Homo sapiens, UniProt Q9UKV0); assay: Inhibition of human HDAC9 using Boc-Lys(trifluoroacetyl)-AMC as flurogenic substrate
[6] = organism: Homo sapiens; assay: Selectivity ratio of IC50 for human HDAC1 to IC50 for human HDAC6
[7] = organism: Homo sapiens; assay: Selectivity ratio of IC50 for human HDAC2 to IC50 for human HDAC6
[8] = organism: Homo sapiens; assay: Selectivity ratio of IC50 for human HDAC7 to IC50 for human HDAC6
[9] = organism: Homo sapiens; assay: Selectivity ratio of IC50 for human HDAC8 to IC50 for human HDAC6
[10] = organism: Homo sapiens; assay: Selectivity ratio of IC50 for human HDAC9 to IC50 for human HDAC6
[11] = molecular target: T1, Amine oxidase [flavin-containing] A (Homo sapiens, UniProt P21397); assay: Inhibition of human full length recombinant MAO-A expressed in insect cells using kynuramine as substrate
T1 sequence (P21397 whole entry): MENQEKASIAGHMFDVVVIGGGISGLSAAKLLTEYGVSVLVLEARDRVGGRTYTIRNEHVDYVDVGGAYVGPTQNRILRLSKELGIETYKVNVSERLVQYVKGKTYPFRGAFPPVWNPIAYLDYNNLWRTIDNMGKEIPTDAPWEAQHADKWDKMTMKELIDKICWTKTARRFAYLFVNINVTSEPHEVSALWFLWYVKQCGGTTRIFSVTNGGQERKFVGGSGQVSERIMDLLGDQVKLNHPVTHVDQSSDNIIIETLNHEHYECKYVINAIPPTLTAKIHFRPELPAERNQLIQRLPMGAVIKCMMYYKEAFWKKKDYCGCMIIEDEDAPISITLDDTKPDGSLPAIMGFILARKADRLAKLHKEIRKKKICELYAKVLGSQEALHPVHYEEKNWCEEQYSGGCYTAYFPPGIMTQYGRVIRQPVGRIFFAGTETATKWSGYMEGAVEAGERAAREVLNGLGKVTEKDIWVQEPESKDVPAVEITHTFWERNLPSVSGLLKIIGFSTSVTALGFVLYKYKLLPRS

[12] = molecular target: T2, Amine oxidase [flavin-containing] B (Homo sapiens, UniProt P27338); assay: Inhibition of human full length recombinant MAO-B expressed in insect cells using kynuramine as substrate; assay type: cell-based
T2 sequence (P27338 whole entry): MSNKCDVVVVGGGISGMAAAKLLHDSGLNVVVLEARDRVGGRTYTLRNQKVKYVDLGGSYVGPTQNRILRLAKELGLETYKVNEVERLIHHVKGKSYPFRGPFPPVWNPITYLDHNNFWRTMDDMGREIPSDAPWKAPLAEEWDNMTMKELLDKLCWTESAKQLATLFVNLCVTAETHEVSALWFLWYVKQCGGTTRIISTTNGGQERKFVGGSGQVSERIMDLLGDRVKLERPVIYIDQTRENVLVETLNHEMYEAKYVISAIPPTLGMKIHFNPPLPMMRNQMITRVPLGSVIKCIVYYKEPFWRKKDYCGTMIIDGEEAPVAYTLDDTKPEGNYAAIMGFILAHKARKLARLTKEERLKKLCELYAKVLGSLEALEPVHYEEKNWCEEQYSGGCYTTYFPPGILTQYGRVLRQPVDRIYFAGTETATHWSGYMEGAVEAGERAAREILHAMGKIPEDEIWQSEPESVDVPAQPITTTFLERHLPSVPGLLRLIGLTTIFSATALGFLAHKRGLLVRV

[13] = organism: Homo sapiens; assay: Selectivity ratio of IC50 for […] IC50 for human full length recombinant MAO-B
[14] = system: DU-145; assay: Upregulation of acetyl-tubulin in human DU-145 cells at 0.625 to 5 uM by Western blot analysis; assay type: functional, cell-based; conditions: dose 0.625-5 µM
[15] = system: PC-3; assay: Induction of H3K4ME2 accumulation in human PC-3 cells at 0.5 to 10 uM incubated for 48 hrs by Western blot analysis; assay type: functional, cell-based; conditions: dose 0.5-10 µM
[16] = system: DU-145; assay: Induction of H3K4ME2 accumulation in human DU-145 cells at 0.5 to 10 uM incubated for 48 hrs by Western blot analysis; assay type: functional, cell-based; conditions: dose 0.5-10 µM
[17] = system: PC-3; assay: Downregulation of LSD1 in human PC-3 cells at 1.25 to 10 uM incubated for 48 hrs by Western blot analysis; assay type: functional, cell-based; conditions: dose 1.25-10 µM
[18] = system: PC-3; assay: Induction of cell death in LSD1 knockdown human PC-3 cells assessed as activation of procaspase-3 at 1.25 to 10 uM by Western blot analysis; assay type: functional, cell-based; conditions: dose 1.25-10 µM
[19] = system: PC-3; assay: Induction of cell death in LSD1 knockdown human PC-3 cells assessed as activation of procaspase-9 at 1.25 to 10 uM by Western blot analysis; assay type: functional, cell-based; conditions: dose 1.25-10 µM
[20] = Half life in Sprague-Dawley rat at 25 mg/kg, po administered once via gavage measured upto 24 hrs post dose by UPLC-MS/MS analysis; assay type: ADME, organism-based; conditions: in vivo
[21] = AUC (0 to 24 hrs) in Sprague-Dawley rat at 25 mg/kg, po administered once via gavage measured upto 24 hrs post dose by UPLC-MS/MS analysis; assay type: ADME, organism-based; set-up: dose 25 mg/kg, time < 24 hrs, route po; conditions: in vivo
[22] = AUC (0 to infinity) in Sprague-Dawley rat at 25 mg/kg, po administered once via gavage measured upto 24 hrs post dose by UPLC-MS/MS analysis; assay type: ADME, organism-based; set-up: time < 24 hrs, dose 25 mg/kg, route po; conditions: in vivo
[23] = Cmax in Sprague-Dawley rat at 25 mg/kg, po formulated using SMEDDS administered once via gavage measured upto 24 hrs post dose by UPLC-MS/MS analysis; assay type: ADME, organism-based; set-up: dose 25 mg/kg, time < 24 hrs, route po; conditions: in vivo
[24] = Metabolic stability in Sprague-Dawley rat hepatocyte assessed as parent compound remaining at 10 uM incubated for 240 mins by LC-MS/MS analysis; assay type: ADME, cell-based; conditions: hepatocytes, read-out: Stability
[25] = Metabolic stability in human hepatocyte assessed as parent compound remaining at 10 uM by LC-MS/MS analysis; assay type: ADME, cell-based; conditions: hepatocytes, read-out: Stability
[26] = Metabolic stability in human hepatocyte assessed as parent compound remaining at 10 uM incubated for 60 mins by LC-MS/MS analysis; assay type: ADME, cell-based; conditions: hepatocytes, read-out: Stability
[27] = Metabolic stability in human hepatocyte assessed as parent compound remaining at 10 uM incubated for 240 mins by LC-MS/MS analysis; assay type: ADME, cell-based; conditions: hepatocytes, read-out: Stability
[28] = Metabolic stability in Beagle dog hepatocyte assessed as half life at 10 uM by LC-MS/MS analysis; assay type: ADME, cell-based, Canis lupus familiaris; conditions: hepatocytes
[29] = Metabolic stability in human hepatocyte assessed as half life at 10 uM by LC-MS/MS analysis; assay type: ADME, cell-based; conditions: hepatocytes
[30] = system: DU-145; assay: Antitumor activity against human DU-145 cells xenografted in athymic nude mouse assessed as tumor growth inhibition at 200 mg/kg, po administered twice daily and measured upto 60 days by caliper method relative to control; assay type: functional; conditions: DU-145, 1440 h, time <= 60 day, read-out: TGI

Histone deacetylase 9, sequence (Q9UKV0 whole entry): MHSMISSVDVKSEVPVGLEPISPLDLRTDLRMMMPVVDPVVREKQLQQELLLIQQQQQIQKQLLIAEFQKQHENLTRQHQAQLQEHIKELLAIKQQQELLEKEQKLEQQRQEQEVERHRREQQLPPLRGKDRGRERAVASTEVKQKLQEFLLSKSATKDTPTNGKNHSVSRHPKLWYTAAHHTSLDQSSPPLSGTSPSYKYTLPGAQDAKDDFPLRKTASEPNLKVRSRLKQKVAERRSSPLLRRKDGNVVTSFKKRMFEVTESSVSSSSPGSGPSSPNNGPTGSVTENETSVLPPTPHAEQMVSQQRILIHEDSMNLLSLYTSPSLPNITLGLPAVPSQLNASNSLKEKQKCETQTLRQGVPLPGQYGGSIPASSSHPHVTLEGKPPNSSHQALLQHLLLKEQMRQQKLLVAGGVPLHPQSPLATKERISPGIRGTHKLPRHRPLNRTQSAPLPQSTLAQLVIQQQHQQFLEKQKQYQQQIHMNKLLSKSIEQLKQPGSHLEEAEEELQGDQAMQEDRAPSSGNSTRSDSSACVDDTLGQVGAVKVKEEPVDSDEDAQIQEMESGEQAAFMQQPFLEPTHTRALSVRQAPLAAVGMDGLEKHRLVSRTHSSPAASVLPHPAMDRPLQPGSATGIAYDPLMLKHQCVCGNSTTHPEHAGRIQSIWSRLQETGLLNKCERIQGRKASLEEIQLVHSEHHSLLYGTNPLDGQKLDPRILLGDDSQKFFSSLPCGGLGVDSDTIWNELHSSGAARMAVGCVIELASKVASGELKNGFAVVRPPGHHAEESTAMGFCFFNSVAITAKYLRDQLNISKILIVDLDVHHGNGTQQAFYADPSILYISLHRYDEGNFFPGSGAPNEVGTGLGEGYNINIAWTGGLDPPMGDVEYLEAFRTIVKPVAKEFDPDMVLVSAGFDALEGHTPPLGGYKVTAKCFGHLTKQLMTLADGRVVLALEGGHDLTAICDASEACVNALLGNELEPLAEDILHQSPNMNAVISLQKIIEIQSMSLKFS
Histone deacetylase 4, sequence (P56524 whole entry): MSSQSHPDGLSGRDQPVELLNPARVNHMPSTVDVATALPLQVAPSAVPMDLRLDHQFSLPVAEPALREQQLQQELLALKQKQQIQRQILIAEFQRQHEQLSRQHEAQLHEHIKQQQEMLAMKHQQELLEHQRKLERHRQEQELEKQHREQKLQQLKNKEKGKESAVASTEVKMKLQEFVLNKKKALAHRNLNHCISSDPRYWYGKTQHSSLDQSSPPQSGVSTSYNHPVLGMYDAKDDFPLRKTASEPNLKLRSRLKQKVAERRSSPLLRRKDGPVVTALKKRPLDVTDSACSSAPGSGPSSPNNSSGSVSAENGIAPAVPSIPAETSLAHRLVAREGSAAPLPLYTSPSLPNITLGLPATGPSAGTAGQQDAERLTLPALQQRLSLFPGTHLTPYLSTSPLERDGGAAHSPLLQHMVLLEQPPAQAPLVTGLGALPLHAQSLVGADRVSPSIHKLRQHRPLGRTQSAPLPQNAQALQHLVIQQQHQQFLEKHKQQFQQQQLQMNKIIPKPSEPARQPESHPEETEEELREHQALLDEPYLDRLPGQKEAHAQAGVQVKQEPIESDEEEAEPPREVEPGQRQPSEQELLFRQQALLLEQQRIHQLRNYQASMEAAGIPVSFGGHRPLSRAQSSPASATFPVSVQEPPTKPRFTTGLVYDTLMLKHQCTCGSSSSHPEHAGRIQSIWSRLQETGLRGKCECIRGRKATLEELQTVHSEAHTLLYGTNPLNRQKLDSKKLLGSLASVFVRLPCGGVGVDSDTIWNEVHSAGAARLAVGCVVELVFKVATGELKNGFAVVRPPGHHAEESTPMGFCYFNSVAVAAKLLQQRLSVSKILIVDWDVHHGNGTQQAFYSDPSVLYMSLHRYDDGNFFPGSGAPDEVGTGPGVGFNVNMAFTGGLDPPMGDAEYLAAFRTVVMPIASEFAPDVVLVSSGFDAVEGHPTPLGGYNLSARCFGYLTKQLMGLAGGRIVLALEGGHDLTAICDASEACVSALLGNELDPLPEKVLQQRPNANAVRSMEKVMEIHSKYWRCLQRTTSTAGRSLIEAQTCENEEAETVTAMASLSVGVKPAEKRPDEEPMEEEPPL
Histone deacetylase 5, sequence (Q9UQL6 whole entry): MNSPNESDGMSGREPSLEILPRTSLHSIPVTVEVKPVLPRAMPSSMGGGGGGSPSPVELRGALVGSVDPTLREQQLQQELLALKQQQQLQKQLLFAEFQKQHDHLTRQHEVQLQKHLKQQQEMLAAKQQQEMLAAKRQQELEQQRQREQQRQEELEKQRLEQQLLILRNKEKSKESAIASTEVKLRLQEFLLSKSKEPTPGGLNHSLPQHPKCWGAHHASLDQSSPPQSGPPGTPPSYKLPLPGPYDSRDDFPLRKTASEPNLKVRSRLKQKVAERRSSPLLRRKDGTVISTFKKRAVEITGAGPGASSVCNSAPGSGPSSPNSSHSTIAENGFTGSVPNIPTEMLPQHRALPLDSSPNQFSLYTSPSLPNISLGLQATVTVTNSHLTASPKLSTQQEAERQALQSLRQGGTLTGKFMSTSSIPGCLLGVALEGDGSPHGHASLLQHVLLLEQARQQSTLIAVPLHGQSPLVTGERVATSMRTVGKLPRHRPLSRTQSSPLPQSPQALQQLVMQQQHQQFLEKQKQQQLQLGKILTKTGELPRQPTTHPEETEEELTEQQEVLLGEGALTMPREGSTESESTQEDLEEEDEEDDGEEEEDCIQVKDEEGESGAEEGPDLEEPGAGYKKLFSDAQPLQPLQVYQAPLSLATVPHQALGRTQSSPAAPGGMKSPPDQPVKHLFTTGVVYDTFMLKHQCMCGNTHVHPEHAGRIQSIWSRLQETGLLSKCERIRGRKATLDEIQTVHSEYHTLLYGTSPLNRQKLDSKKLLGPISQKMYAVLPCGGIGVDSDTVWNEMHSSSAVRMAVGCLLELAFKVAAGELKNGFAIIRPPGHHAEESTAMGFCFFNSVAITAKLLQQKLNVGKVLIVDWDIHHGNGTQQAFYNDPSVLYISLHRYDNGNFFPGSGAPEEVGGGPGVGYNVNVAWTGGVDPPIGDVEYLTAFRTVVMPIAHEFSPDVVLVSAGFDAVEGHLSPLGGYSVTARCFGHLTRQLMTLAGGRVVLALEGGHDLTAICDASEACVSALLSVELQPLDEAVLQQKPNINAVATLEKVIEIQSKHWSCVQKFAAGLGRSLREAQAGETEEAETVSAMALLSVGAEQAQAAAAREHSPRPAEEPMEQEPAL

## C#CCN(C)Cc1cccc(NC(=O)CCCCCCC(=O)NO)c1
[1]
  GI50: 330 nM
[2]
  GI50: 420 nM
[3]
  IC50: > 10 µM
[4]
  IC50: 13.4 µM
[5]
  IC50: > 10 µM
[6]
  Ratio IC50: 33.6
[7]
  Ratio IC50: 77
[8]
  Ratio IC50: > 500
[9]
  Ratio IC50: 10.5
[10]
  Ratio IC50: > 500
[11]
  IC50: 790 nM
[12]
  IC50: 67 µM
[13]
  Ratio IC50: 84
[14]
  Activity: Active
[15]
  Activity: Active
[16]
  Activity: Active
[17]
  Activity: Active
[18]
  Activity: Active
[19]
  Activity: Active
[20]
  half-life: 204 min
[21]
  AUC(0-t) at 24 h: 108 ng·h/mL
[22]
  AUC(0-inf): 113 ng·h/mL
[23]
  Cmax: 257 ng/mL
[24]
  remaining at 4 h, 10 µM: 15.9%
[25]
  remaining at 10 µM: 100%
[26]
  remaining at 1 h, 10 µM: 102%
[27]
  remaining at 4 h, 10 µM: 83.3%
[28]
  half-life at 10 µM: 217 min
[29]
  half-life at 10 µM: 797 min
[30]
  inhibition in vivo at 200 mg/kg: 80.8%
